Test results: patent publication US11311506B2, “Controlling biofilms with cyclopropanated fatty acids” (THE UNIVERSITY OF MEMPHIS RESEARCH FOUNDATION, priority 2018, dated 2022)
One block for each compound: values may come before it.

How the values were obtained:
[1] = tested on: Staphylococcus aureus biofilm; assay: Biofilm dispersion measurements (Staphylococcus aureus), Luciferase assay for ATP production; assay type: cell-based; conditions: 500 μg/mL; preformed 7-day S. aureus biofilm; FIG. 1
Protocol: Biofilm was formed using Staphylococcus aureus in a 96-well plate format. Each well of the plate was seeded with 150 μL of bacterial culture and incubated for 24 hours to allow for biofilm growth. The medium in each well was changed every 24 hours for 5 days and every 12 hours for two additional days. On day 7, 135 μL of Tryptic Soy Broth (TSB) and 15 μL of C2DA, T2DA, or 2-CP were added to yield final concentrations of each test compound ranging from 0 to 1000 μg/mL. The plate was then incubated for one hour and the turbidity of each solution was determined at 540 nm. Bacterial growths were then aspirated from all wells and the plates were washed several times with water.
(§1) The relative percentage of attached cells as compared to non-treated controls was assessed using a Luciferase assay for ATP production.

[2] = tested on: Staphylococcus aureus biofilm; assay: Biofilm eradication with antibiotics, MBEC Biofilm Inoculator plate, turbidity at 540 nm (Example 3); assay type: cell-based; conditions: 24 h
Protocol: Overnight cultures of Staphylococcus aureus were prepared by inoculating 2 mL of TSB followed by incubation overnight at 37° C. The following day, 1 mL of this stock was diluted in 10 mL of TSB. A total of 150 μL of the diluted stock was seeded into each well of a 96-well MBECTM Biofilm Inoculator plate, followed by incubation overnight to allow biofilm growth. All media and planktonic bacteria were then aspirated from each well thus allowing the biofilm to remain both on the bottom of each well and on the pegs on the top of the plate. […] The plates were incubated for 24 hours at 37° C. Following incubation, the pegs were removed and added to new plates containing 150 μL of sterile TSB in each well. Plates and pegs were then sonicated for 5 minutes to remove any viable bacteria attached to the pegs, followed by incubation for 24 hours. Turbidity was determined via absorbance at 540 nm to access bacterial growth in the presence of fixed concentration of antibiotics and varying concentrations of […] and 2-CP. In this assay, the live bacteria that remained attached to the pegs grew overnight and increased turbidity.

[3] = tested on: Mouse fibroblast cells (NIH3T3); assay: Cytocompatibility, CellTiter Glow cell viability; assay type: cell-based
Protocol: Mouse fibroblast cells (NIH3T3) were seeded (1×10^4 cells/cm^2) in 24-well plates in Dulbecco's Modified Eagle's Medium (DMEM) supplemented with 10% fetal bovine serum and 100 μg/mL Normocin for 24 hours at 37° C. and 5% CO2. Concentrations of C2DA, T2DA, and 2-CP ranging from 0 to 1000 μg/mL were added to various wells. The plate was incubated for 24 hours and cell viability was measured using CellTiter Glow.

[4] = tested on: Pseudomonas aeruginosa (ATCC 27317) biofilm; assay: Biofilm dispersion measurements (Pseudomonas aeruginosa), Luciferase assay for ATP production; assay type: cell-based; conditions: 125 or 250 μg/mL, 24 h; FIG. 7
Protocol: Biofilm was formed using Pseudomonas aeruginosa (ATCC 27317) in a 96-well plate format. Each well of the plate was seeded with 150 μL of bacterial culture and incubated for 24 hours. […] The plate was then incubated for 24 hours and the medium was aspirated and the plate washed several times.
as §1

[5] = tested on: S. aureus (UAMS-1); assay: Synergy checkerboard assay, biofilm inhibition (S. aureus); assay type: cell-based; conditions: for MIC for antibiotic (combined): combined with 2-CP
Protocol: (§2) Synergy assays were performed to determine the effects of 2-CP when used in combination with various antimicrobials against gram positive S. aureus and gram negative P. aeruginosa. […] Final antibiotic concentrations varied based on their respective minimum inhibitory concentration for each organism and are given in Table 1. […] Inhibition was defined as a lack of visible growth after a 24 hr incubation period. The fractional inhibitory concentration index (FICI) was used to determine synergistic, additive, or antagonistic responses between the three antibiotics and 2-CP.

[6] = tested on: P. aeruginosa (PA-ATCC 27317); assay: Synergy checkerboard assay, biofilm inhibition (P. aeruginosa); assay type: cell-based; conditions: for FICI / Interpretation: antibiotic combined with 2-CP; for MIC for antibiotic (combined): combined with 2-CP
Protocol: as §2

[7] = tested on: Pseudomonas aeruginosa (ATCC 27317) biofilm; assay: Biofilm eradication with antibiotics, MBEC plate (Example 8, P. aeruginosa); assay type: cell-based; conditions: for FICI / Interpretation: P. aeruginosa eradication, antibiotic combined with 2-CP; for FICI: 4000 μg/mL used for 2-CP alone; for MEC for antibiotic (combined): combined with 2-CP
Protocol: (§3) Staphylococcus aureus (UAMS1) was grown overnight in TSB by incubation at 37° C. Pseudomonas aeruginosa (ATCC 27317) was grown overnight in a similar manner. S. aureus was diluted 1:10 in TSB and P. aeruginosa was diluted 1:50. Bacterial dilutions were added at a volume of 150 μL into each well of a 96-well MBEC′ Biofilm Inoculator plate, followed by overnight incubation to form the biofilm. The next day the medium from each well was carefully aspirated allowing the biofilm to remain both on the pegs of the top plate and the bottom of the wells. […] These plates were incubated at 37° C. for 24 hours. The next day the peg plates (top plate) were removed and added to new plates containing 150 μL of sterile TSB in each well. Plates were sonicated for 5 minutes to remove the viable bacteria attached to the peg surface and later incubated for 24 hours. Turbidity was measured by reading absorbance at 540 nm for bacterial growth in the presence of fixed concentrations of the antibiotics with varying concentrations of 2-CP and C2DA.

[8] = tested on: Staphylococcus aureus (UAMS1) biofilm; assay: Biofilm eradication with antibiotics, MBEC plate (Example 8, S. aureus); assay type: cell-based
Protocol: as §3

[9] = tested on: bacterial growth; conditions: background statement; cited from earlier work
[10] = tested on: biofilm formation; conditions: background statement; cited from earlier work

SMILES: CCCCCCC/C=C\C(=O)O [C2DA, cis-2-decenoic acid]
concentration that may inhibit bacterial growth [9]: 500 µg/mL | concentration capable of inhibiting biofilm formation [10]: 125 µg/mL

SMILES: CN(C)[C@@H]1C(O)=C(C(N)=O)C(=O)[C@@]2(O)C(O)=C3C(=O)c4c(O)cccc4[C@@](C)(O)[C@H]3C[C@@H]12 [Tetracycline]
MIC for antibiotic (alone) [5]: 1 µg/mL | MIC for antibiotic (combined) [5]: 0.5 µg/mL | MIC for antibiotic (alone) [6]: 32 µg/mL | FICI [6]: 0.8 | MIC for antibiotic (combined) [6]: 16 µg/mL

Now from value to compound, other results behind:

MIC ([5]; Staphylococcus aureus, 24 hr, read-out: MIC for 2-CP (alone)): 4000 µg/mL | MIC for 2-CP (combined) ([5]; combined with Levofloxacin): 500 µg/mL | MIC for 2-CP (combined) ([5]; combined with Tetracycline): 62.5 µg/mL | MIC for 2-CP (combined) ([5]; combined with Tobramycin): 31 µg/mL | MIC ([6]; Pseudomonas aeruginosa, ATCC27317, 24 hr, read-out: MIC for 2-CP (alone)): 4000 µg/mL | MIC for 2-CP (combined) ([6]; combined with Levofloxacin): 1000 µg/mL | MIC for 2-CP (combined) ([6]; combined with Tetracycline): 1000 µg/mL | MIC for 2-CP (combined) ([6]; combined with Tobramycin): 31 µg/mL
SMILES: CCCCCCCC1CC1C(=O)O (stereo not drawn) [2-CP, cis-2-heptylcyclopropanyl-1-carboxylic acid]
ability to disperse biofilm (percentage of dispersed cells) [1]: increased ability to disperse biofilm as compared to its unsaturated fatty acid analog, C2DA | turbidity (absorbance at 540 nm) of bacteria surviving on pegs ([2]; increasing concentration of 2-CP (0-500 μg/mL) with fixed […] tobramycin, FIG. 2): significantly lower | biofilm eradication in combination with tetracycline ([2]; with tetracycline at […], fatty acid 0-500 μg/mL, FIG. 3): eradicated the biofilm at lower concentrations than C2DA | cytocompatibility (percentage of viable cells vs PBS control) ([3]; NIH3T3, 0 to 1000 μg/mL, 24 h, FIG. 4): cytocompatibility equal to C2DA | concentration exhibiting significant cytotoxicity toward mammalian cells ([3]; NIH3T3, 24 h): 1000 µg/mL | ability to disperse biofilm (relative percentage of attached cells) [4]: increased ability to disperse biofilm as compared to T2DA and controls | concentration inhibiting growth ([5]; 2-CP alone): 4 mg/mL | concentration inhibiting growth ([6]; 2-CP alone): 4 mg/mL | MEC for 2-CP (alone) ([7]; P. aeruginosa biofilm eradication): >4000 | biofilm eradication by the substance alone ([7]; P. aeruginosa, alone): did not eradicate biofilm at any concentration tested | MEC for 2-CP (combined) ([7]; P. aeruginosa, combined with Levofloxacin): 250 | MEC for 2-CP (combined) ([7]; P. aeruginosa, combined with Tobramycin): 250 | MEC for 2-CP (alone) ([8]; S. aureus biofilm eradication): >4000 | biofilm eradication by the substance alone ([8]; S. aureus, alone): did not eradicate biofilm at any concentration tested | MEC for 2-CP (combined) ([8]; S. aureus, combined with Tetracycline): 125 | MEC for 2-CP (combined) ([8]; S. aureus, combined with Tobramycin): 31.25

MIC for antibiotic (alone) [5]: 1 µg/mL | MIC for antibiotic (combined) [5]: 0.25 µg/mL | MIC for antibiotic (alone) [6]: 1 µg/mL | MIC for antibiotic (combined) [6]: 0.5 µg/mL
SMILES: C[C@H]1COc2c(N3CCN(C)CC3)c(F)cc3c(=O)c(C(=O)O)cn1c23 [Levofloxacin]
FICI ([5]; antibiotic combined with 2-CP): 0.4 | FICI [6]: 0.8 | MEC for antibiotic (alone) ([7]; P. aeruginosa): 0.3 µg/mL | FICI [7]: 0.33 | MEC for antibiotic (combined) ([7]; P. aeruginosa): 0.08 µg/mL

MIC for antibiotic (alone) [5]: 4 µg/mL | MIC for antibiotic (combined) [5]: 2 µg/mL | MIC for antibiotic (alone) [6]: 0.5 µg/mL | MIC for antibiotic (combined) [6]: 0.25 µg/mL
SMILES: NC[C@H]1O[C@H](O[C@H]2[C@H](O)[C@@H](O[C@H]3O[C@H](CO)[C@@H](O)[C@H](N)[C@H]3O)[C@H](N)C[C@@H]2N)[C@H](N)C[C@@H]1O [Tobramycin]
FICI ([5]; antibiotic combined with 2-CP): 0.5 | Interpretation ([5]; antibiotic combined with 2-CP): synergistic | FICI [6]: 0.5 | Interpretation [6]: Syner- | Interpretation ([6]; listed as tobramycin): synergistic | MEC for antibiotic (alone) ([7]; P. aeruginosa): 0.5 µg/mL | Interpretation [7]: Additive | FICI [7]: 0.5625 | Interpretation ([7]; listed as tobramycin): additive | MEC for antibiotic (combined) ([7]; P. aeruginosa): 0.25 µg/mL | MEC for antibiotic (alone) ([8]; S. aureus): 2.5 µg/mL | Interpretation ([8]; S. aureus eradication, antibiotic combined with 2-CP): Additive | FICI ([8]; S. aureus eradication, antibiotic combined with 2-CP, 4000 μg/mL used for 2-CP alone): 0.51 | Interpretation ([8]; S. aureus eradication, antibiotic combined with 2-CP, listed as tobramycin): additive | MEC for antibiotic (combined) ([8]; S. aureus, combined with 2-CP): 1.25 µg/mL
